Laboratory results from PMC11696576, “Next generation thiazolyl ketone inhibitors of cytosolic phospholipase A2 α for targeted cancer therapy” (Nature Communications, 2025).
Like-named read-outs stand apart in the source and are kept apart here.

Target: T1, human calcium-independent GVIA iPLA2 (Homo sapiens, UniProt O60733)
T1 sequence (O60733 1-806): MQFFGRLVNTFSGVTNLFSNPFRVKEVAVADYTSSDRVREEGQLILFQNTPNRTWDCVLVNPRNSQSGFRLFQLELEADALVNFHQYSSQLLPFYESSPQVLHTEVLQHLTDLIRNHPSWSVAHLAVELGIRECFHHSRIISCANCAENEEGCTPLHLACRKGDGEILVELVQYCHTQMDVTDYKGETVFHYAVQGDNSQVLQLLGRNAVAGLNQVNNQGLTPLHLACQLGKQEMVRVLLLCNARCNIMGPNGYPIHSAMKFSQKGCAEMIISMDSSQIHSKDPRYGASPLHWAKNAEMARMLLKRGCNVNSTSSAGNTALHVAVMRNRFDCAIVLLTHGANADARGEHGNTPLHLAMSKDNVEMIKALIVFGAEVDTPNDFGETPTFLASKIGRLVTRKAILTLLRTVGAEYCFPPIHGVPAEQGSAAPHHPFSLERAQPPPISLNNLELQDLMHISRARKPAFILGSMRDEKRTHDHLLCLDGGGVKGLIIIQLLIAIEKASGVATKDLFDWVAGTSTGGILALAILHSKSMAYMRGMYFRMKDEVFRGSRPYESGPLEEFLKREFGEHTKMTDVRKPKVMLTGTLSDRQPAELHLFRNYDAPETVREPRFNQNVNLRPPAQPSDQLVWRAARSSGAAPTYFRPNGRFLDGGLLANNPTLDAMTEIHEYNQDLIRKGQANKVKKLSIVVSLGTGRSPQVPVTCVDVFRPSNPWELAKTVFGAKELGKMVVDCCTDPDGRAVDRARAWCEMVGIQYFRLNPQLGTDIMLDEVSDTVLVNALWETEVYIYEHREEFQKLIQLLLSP
Test: radioactivity-based mixed micelle assay, GVIA iPLA2
Format: biochemical
Experimental: All synthesized thiazolyl ketones were tested for their in vitro inhibitory activity on recombinant human cPLA2α and selectivity over human calcium-independent GVIA iPLA2 and secreted GV sPLA2 using our previously described group-specific radioactivity-based mixed micelle assays. The inhibition results are presented either as per cent inhibition or as XI(50) values in Table 1. […] The XI(50) is defined as the mole fraction of the inhibitor in the total substrate interface required to inhibit the enzyme activity by 50%. For comparison purposes, previously published data for the inhibitor GK470[19] are included. […] Inhibitors were initially screened at 0.091 mol fraction (5 μL of 5 mM inhibitor in DMSO) in substrate (495 μL) in technical triplicates. […] The XI(50) value and stdev values reported are for the entire curve. This analysis was performed in GraphPad Prism v6.

[1] = 0.091 mole fraction, read-out: GVIA iPLA2 % Inhib
[2] = average of triplicates, read-out: iPLA2 % inhibition at 0.091 mole fraction, average
[3] = individual technical replicate, read-out: iPLA2 % inhibition at 0.091 mole fraction

Compound	inhibition at 0.091 mole fraction [1] [%]	inhibition at 0.091 mole fraction [2] [%]	inhibition at 0.091 mole fraction [3] [%]
CCCCCCOc1ccc(SCC(=O)c2nc(C(=O)OC)cs2)cc1 [GK419]	0	0	0
COC(=O)c1csc(C(=O)COc2ccc(Oc3ccc(F)cc3)cc2)n1 [GK440]	0	0	0
CCCCCCCCc1ccc(OCC(=O)c2nc(C(=O)OCC)cs2)cc1 [GK401]	40	39.8	41.2
COC(=O)c1csc(C(=O)C(C)Oc2ccc(Oc3ccccc3)cc2)n1 (centres unmarked) [GK428]	54	53.6	54.3
COC(=O)c1csc(C(=O)COc2ccc(Oc3ccccc3)cc2)n1 [GK403]	34	34.3	33.6
CCCCCCCOc1ccc(OCC(=O)c2nc(C(=O)OC)cs2)cc1 [GK420]	0	0	0

Other lines, results leading:

inhibition at 0.091 mole fraction [1] [%]	inhibition at 0.091 mole fraction [2] [%]	inhibition at 0.091 mole fraction [3] [%]	Compound
67	67.1	73.4	CCCCCCSc1ccc(OC(C)C(=O)c2nc(C(=O)OC)cs2)cc1 (centres unmarked) [GK449]
67	66.9	68.3	CCCCCCCOc1ccc(OC(C)C(=O)c2nc(C(=O)OC)cs2)cc1 (centres unmarked) [GK439]
61	60.8	59.9	CCCCCCCCc1ccc(OC(C)C(=O)c2nc(C(=O)OC)cs2)cc1 (centres unmarked) [GK402]
7.5	7.5		CCCCCCSc1ccc(OCC(=O)c2nc(C(=O)OC)cs2)cc1 [GK427]
